A word on the melting point: it is the temperature, or range, at which the solid turns liquid.

Counter-ions that a name gives are not always drawn. Like-named read-outs stand apart in the source and are kept apart here. Ends that are not written are not given here. Bounds are passed on as bounds.

For one data set, the target named is T1, GHS1A-receptor (Homo sapiens, UniProt Q92847).
T1 construct: expressed in transfected cells; host or cells: HEK293
Kind of data set: Ghrelin-agonism in HEK293 cells (intracellular calcium, FLIPR). Type of data set: cell-based. The following applies: HEK293 cells permanently transfected with GHS1A-receptor, calcium fluorescence (fluo-4 or Kit-3), EC50 in M, read-out: pEC50 (converted). On the procedure: One day before the experiment, HEK293 cells, permanently transfected with the gene sequence for expression of the GHS1A-receptor, were seeded in poly-D-Lysine coated 96-well plates with clear bottom, and allowed to grow to […] of confluence on the next day.
Then, cells were incubated with the calcium-sensitive intracellular fluorescent probe fluo-4 or Kit-3 for 1 h at 37° C. Fluorescence representing free intracellular calcium in the cells was measured in a FLIPR-system (excitation at 488 nm, emission>520 nm). Test compounds were added to each well at the desired concentration and the fluorescence signal was simultaneously recorded in all wells. Release of intracellular calcium triggered by activation of the receptors upon addition of the test compound was measured as the fluorescence emitted from the complex of calcium and the fluorescent probe. The drug effect on fluorescence intensity was expressed relative to the maximal fluorescence intensity measured in cells exposed to the calcium-ionophore ionomycin.
On the technique in general: Calcium flux is commonly read through the fluorescence of an indicator in the cells.

A further data set relates to NMRI-mice. Kind of data set: Acceleration of gastric emptying and small intestinal propulsion in NMRI-mice. The data set is classed as in vivo. The note with it: Mus musculus, sc, lowest active dose, subcutaneous, 30 min before phenol red test meal. On the procedure:
Male NMRI-mice weighing around 25 gram were fasted for 20 h and had free access to drinking water. Test compounds were administered to the animals by subcutaneous route 30 min before they were given a test meal by oral gavage. The test meal consisted of 0.3 ml of a chocolate nutridrink solution (1.0 kcal/ml) containing phenol red marker (5 mg/ml). Fifteen min after administration of the meal, the mice were sacrificed by CO2 gas inhalation. The phenol red content remaining in the stomach (extracted from the stomach with NaOH) was determined at 557 nm in a spectrophotometer and expressed as extinction units. Small intestinal propulsion was determined as the distance traveled by the phenol red marker through the intestine and expressed as a percentage of total small intestinal length (from the pylorus to the ileo-cecal junction).
The lowest dose that was active for each parameter was noted as the lowest active dose (LAD). Table 12 discloses LAD values.

Data set [1] deals with transgenic mice with a deletion of GHS1A-r. The data set can be described thus: In house study: gastric emptying after ghrelin in transgenic mice with a deletion of GHS1A-r. The data set is classed as in vivo. The following applies: administered up to 2.5 mg/kg. An excerpt: (§1) These observations confirm that the gastrointestinal pro-kinetic properties of ghrelin-ligands are mediated by direct interaction with GHS1A-r. Small molecules showing affinity for the GHS1A-r and activating it are therefore anticipated to stimulate gastrointestinal motility in general, and gastric emptying in particular.

In another data set the test system is mice. Kind of data set: In house study: gastric emptying of a test meal after intravenous ghrelin in mice. The note with it: intravenous administration to mice; 95% confidence interval 0.058-0.174. The data set is classed as in vivo.
Text: as §1

Setting [2] is: active when >60% of animals had phenol red front beyond 85% of small intestinal length, read-out: LAD (mg/kg) Small intestinal propulsion.
Setting [3] is: stomach content 15 min after meal, active when >60% of animals below 0.9 extinction units, read-out: LAD (mg/kg) Gastric emptying.

T1 sequence (Q92847 whole entry): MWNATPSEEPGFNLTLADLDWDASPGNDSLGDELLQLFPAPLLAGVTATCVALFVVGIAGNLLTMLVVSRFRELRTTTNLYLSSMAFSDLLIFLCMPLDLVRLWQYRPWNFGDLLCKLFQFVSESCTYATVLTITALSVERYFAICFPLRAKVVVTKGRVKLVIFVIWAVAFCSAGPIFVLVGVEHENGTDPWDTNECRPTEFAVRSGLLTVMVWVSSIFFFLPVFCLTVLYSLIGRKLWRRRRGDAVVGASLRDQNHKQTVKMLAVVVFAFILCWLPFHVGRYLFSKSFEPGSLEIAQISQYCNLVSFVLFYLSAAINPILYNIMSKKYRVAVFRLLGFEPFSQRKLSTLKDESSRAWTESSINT

Turning to `CN(C)CCCC1(O)c2ccccc2CCCC1c1ccc(Cl)cc1` (single isomer, unassigned) (as salt: oxalate) [Compound 3], the melting point is 168.7 °C.

Take `OC1(CCCN2CCCCC2)c2ccccc2CCCC1c1ccc(F)cc1F` (racemic) (as salt: oxalate) [Compound 59]: the melting point was 211.5 °C.

Consider `CCN(CC)CCCC1(O)c2ccccc2CCCC1c1ccc(O)cc1` (racemic) [Compound 36], for which the melting point was determined as 141.4 °C. Further, on GHS1A-receptor, the EC50 is 6.31 µM.

In turn, `OC1(CCCN2CCCC2)c2ccccc2CCCC1c1ccc(Cl)cc1` (racemic) (as salt: oxalate) [Compound 48] registered a melting point of 236.2 °C.

Turning to `CNCCCC1(O)c2ccccc2CCCC1c1cccc(C)c1` (racemic) (as salt: oxalate) [Compound 22], the melting point was found to be 137.4 °C.

As to `OC1(CCCN2CCCCC2)c2ccccc2CCCC1c1ccc(Cl)cc1` (racemic) (as salt: oxalate) [Compound 50], the melting point came to 201.1 °C.

In turn, `CN(C)CCC[C@@]1(O)c2ccccc2OCC[C@@H]1c1ccccc1` (relative stereo) (as salt: oxalate) [Compound 8] yielded a melting point of 136 °C.

Consider `CCN(CC)CCCC1(O)c2ccccc2CCCC1c1ccc(C)cc1` (racemic) (as salt: oxalate) [Compound 31], for which the melting point was found to be 158.6 °C.

Take `Cc1ccc(C2CCCc3ccccc3C2(O)CCCN2CCN(C)CC2)cc1` (racemic) (as salt: oxalate) [Compound 33]: the melting point is 219 °C.

For `CCN(CC)CCCC1(O)c2ccccc2CCCC1c1ccc(Cl)cc1` (racemic) (as salt: HCl) [Compound 46], the melting point came out at 189.8 °C.

With `COCCN(C)CCCC1(O)c2ccccc2CCCC1c1ccc(C)cc1` (racemic) (as salt: oxalate) [Compound 30], the melting point stood at 144.9 °C.

Compound `CNCCCC1(O)c2ccccc2CCCC1c1ccc(C)cc1` (racemic) (as salt: oxalate) [Compound 27] came in with a melting point of 235.8 °C.

In the case of `Cc1ccc(C2CCCc3ccccc3C2(O)CCCN(C)C)cc1` (racemic) (as salt: oxalate) [Compound 29], the melting point is 161.8 °C.

As for `CN(C)CCCC1(O)c2ccccc2CCCC1c1cnc2ccccc2c1` (racemic) [Compound 85], the melting point is 150.3 °C. The minimal effective dose with NMRI-mice (setting [2]) is more than 10 mg/kg. For the same compound, in the data set on NMRI-mice (setting [3]), the minimal effective dose was more than 10 mg/kg. Also, the EC50 at GHS1A-receptor is 0.1 µM.

On to `COc1ccc(C2CCCc3ccccc3C2(O)CCCN(C)C)cc1` (racemic) (as salt: oxalate) [Compound 66], for which the melting point came to 100 °C.

`Cc1cccc(C2CCCc3ccccc3C2(O)CCCN2CCOCC2)c1` (racemic) (as salt: oxalate) [Compound 25] displayed a melting point of 204.8 °C.

In turn, `CNCCCC1(O)c2ccccc2CCCC1c1ccccc1` (racemic) (as salt: oxalate) [Compound 19] showed a melting point of 129 °C.

In turn, `CN(C)CCCC1(O)c2ccccc2CCCC1c1ccccc1` (single isomer, unassigned) (as salt: oxalate) [Compound 105] had a melting point of 178 °C.

`COCCN(C)CCCC1(O)c2ccccc2CCCC1c1ccc(OC)cc1` (racemic) (as salt: oxalate) [Compound 70] gave a melting point of 132.2 °C.

In the case of `COc1ccc(C2CCCc3ccccc3C2(O)CCCN2CCN(C(C)=O)CC2)cc1` (racemic) [Compound 71], the melting point is 165.1 °C. Besides, on GHS1A-receptor, the EC50 was more than 10 µM.

The compound `CC(C)NCCCC1(O)c2ccccc2CCCC1c1cnc2ccccc2c1` (racemic) [Compound 86] displayed a melting point of 115.2 °C. The EC50 on GHS1A-receptor is 0.631 µM.

In the case of `OC1(CCCN2CCCC2)c2ccccc2CCCC1c1ccccc1` (racemic) (as salt: oxalate) [Compound 21], the melting point came out at 202 °C.

On to `COc1cccc([C@H]2CCCc3ccccc3[C@]2(O)CCCN(C)C)c1` (racemic) (as salt: oxalate) [Compound 14, (±)cis-5-(3-Dimethylamino-propyl)-6-(3-methoxy-phenyl)-6,7,8,9-tetrahydro-5H-benzocyclohepten-5-ol oxalate], for which the melting point was found to be 108 °C.

Compound `COCCN(C)CCCC1(O)c2ccccc2CCCC1c1ccc(O)cc1` (racemic) (as salt: oxalate) [Compound 37] showed a melting point of 191.1 °C.

As to `CNCCCC1(O)c2ccccc2CCCC1c1ccc(OC)cc1` (racemic) (as salt: oxalate) [Compound 65], the melting point amounted to 134.3 °C.

On to `CCN(CC)CCCC1(O)c2ccccc2CCCC1c1ccc(OC)cc1` (racemic) (as salt: oxalate) [Compound 67], for which the melting point was found to be 153 °C.

The compound `CC(=O)N1CCN(CCCC2(O)c3ccccc3CCCC2c2ccc(C)cc2)CC1` (racemic) [Compound 34] registered a melting point of 216.2 °C. For the same compound, the EC50 at GHS1A-receptor was 3.16 µM.

“ghrelin (GSSFLSPEHQRVQQRKESKKPPAKLQPR; ends and bridges not checked; UniProt Q9UBU3 24-51, looked up) ["an endogenous peptide hormone ... the natural ligand for the type 1 growth hormone secretagogue receptor (GHS1A-r)"]”: the “effect on gastric emptying” value in data set [1] is “no effect”. Besides, the “ED50 stimulation of gastric emptying of a test meal” value in the data set on mice was 0.100 mg/kg.

The compound `CCN(CC)CCCC1(O)c2ccccc2CCCC1c1ccc(F)cc1F` (racemic) (as salt: oxalate) [Compound 57] showed a melting point of 160.3 °C.

Compound `COc1cccc(C2CCCc3ccccc3C2(O)CCCN2CCN(C(C)=O)CC2)c1` (racemic) [Compound 63] returned a melting point of 153 °C. The EC50 at GHS1A-receptor was more than 10 µM.

Take `COCCN(C)CCCC1(O)c2ccccc2CCCC1c1ccc(F)cc1F` (racemic) (as salt: oxalate) [Compound 58]: the melting point was 140 °C.

`CCN(CC)CCCC1(O)c2ccccc2CCCC1c1cccc(Cl)c1` (racemic) (as salt: oxalate) [Compound 41] displayed a melting point of 160.3 °C.

`Oc1ccc([C@H]2CCCc3ccccc3[C@]2(O)CCCN2CCOCC2)cc1` (relative stereo) [Compound 7] gave a melting point of 177.1 °C.

The compound `Cc1ccc(C2CCCc3ccccc3C2(O)CCCN2CCCC2)cc1` (racemic) [Compound 28] registered a melting point of 139.8 °C. The minimal effective dose in the data set with NMRI-mice (setting [2]) was more than 10 mg/kg. Moreover, the minimal effective dose with NMRI-mice (setting [3]) was more than 10 mg/kg. In addition, the EC50 at GHS1A-receptor is 0.158 µM.

The compound `CN(C)CCCC1(O)c2ccccc2CCCC1c1cncnc1` (racemic) [Compound 84] returned a melting point of 134.3 °C. Also, the EC50 on GHS1A-receptor is 7.94 µM.

On to `COc1cc(C2CCCc3ccccc3C2(O)CCCN2CCC(O)C2)ccc1Cl` (racemic) [Compound 73], for which the minimal effective dose in the data set with NMRI-mice (setting [2]) is 10 mg/kg; in the data set on NMRI-mice (setting [3]), more than 10 mg/kg. Further, the EC50 on GHS1A-receptor was 0.316 µM.

In the case of `COc1cc(C2CCCc3ccccc3C2(O)CCCN(C)C)ccc1Cl` (racemic) [Compound 72], the minimal effective dose in the data set on NMRI-mice (setting [2]) and in the data set with NMRI-mice (setting [3]) was more than 10 mg/kg in each case. For the same compound, on GHS1A-receptor, the EC50 was 0.01 µM.

In turn, `CN(C)CCCC1(O)c2ccccc2CCCC1c1ccccc1` (single isomer, unassigned) (as salt: oxalate) [Compound 104] came in with a melting point of 210 °C.

The values are drawn from patent US9040725B2, “Benzocycloheptane and benzoxepine derivatives” (Janssen Pharmaceutica NV, priority 2008, dated 2015).
